Assay results published in US20200291018A1, “TAM KINASE INHIBITORS” (SYROS PHARMACEUTICALS, INC., priority 2017, published 2020).

Assays:
MERTK = target: T1, MERTK (Homo sapiens, UniProt Q12866); assay: TR-FRET kinase activity assay, MERTK; assay type: biochemical; details: for IC50: TR-FRET activity assay, ATP at Km, 60 minutes, read-out: Mer IC50; for Mer/Flt3 ratio (FLT3 IC50/Mer IC50): ratio calculated as FLT3 IC50/Mer IC50
T1 sequence (Q12866 21-999): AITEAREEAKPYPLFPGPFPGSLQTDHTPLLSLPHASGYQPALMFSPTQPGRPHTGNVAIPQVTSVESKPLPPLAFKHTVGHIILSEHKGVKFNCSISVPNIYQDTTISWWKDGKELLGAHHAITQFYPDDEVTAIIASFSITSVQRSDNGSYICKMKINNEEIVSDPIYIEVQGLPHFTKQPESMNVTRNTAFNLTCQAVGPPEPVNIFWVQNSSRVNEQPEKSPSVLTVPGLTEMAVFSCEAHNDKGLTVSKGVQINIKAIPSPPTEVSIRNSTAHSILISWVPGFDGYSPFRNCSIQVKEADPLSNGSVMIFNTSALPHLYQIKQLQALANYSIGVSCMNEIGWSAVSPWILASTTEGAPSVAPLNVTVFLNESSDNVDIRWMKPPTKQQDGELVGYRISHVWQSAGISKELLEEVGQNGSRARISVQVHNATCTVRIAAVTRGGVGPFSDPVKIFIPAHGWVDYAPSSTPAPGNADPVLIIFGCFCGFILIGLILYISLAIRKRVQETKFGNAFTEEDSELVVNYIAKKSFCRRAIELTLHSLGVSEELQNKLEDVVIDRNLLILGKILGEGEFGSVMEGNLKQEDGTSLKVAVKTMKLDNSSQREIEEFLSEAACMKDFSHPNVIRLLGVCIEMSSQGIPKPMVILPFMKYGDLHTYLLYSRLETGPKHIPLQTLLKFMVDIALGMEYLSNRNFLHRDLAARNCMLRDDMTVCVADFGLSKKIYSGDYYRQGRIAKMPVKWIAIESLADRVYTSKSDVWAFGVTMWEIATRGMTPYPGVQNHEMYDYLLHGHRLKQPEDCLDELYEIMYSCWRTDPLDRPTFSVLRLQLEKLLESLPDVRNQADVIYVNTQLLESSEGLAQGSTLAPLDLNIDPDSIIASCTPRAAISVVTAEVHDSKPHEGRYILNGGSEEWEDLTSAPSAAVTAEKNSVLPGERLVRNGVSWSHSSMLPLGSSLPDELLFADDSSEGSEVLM
How it was run: (§1)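 IC50 came from TR-FRET signal after 30 min dark development with a Europium-labeled phospho-specific antibody. This followed a 60 min RT reaction, stopped with EDTA, started with ATP at Km per enzyme. Peptide substrate, enzyme and compound were premixed in HEPES pH 7.5 buffer with MgCl2, EGTA, Brij 35 and DTT.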

FLT3 = target: T2, FLT3 (Homo sapiens, UniProt P36888); assay: TR-FRET kinase activity assay, FLT3; assay type: biochemical; details: ATP at Km, 60 minutes
T2 sequence (P36888 27-993): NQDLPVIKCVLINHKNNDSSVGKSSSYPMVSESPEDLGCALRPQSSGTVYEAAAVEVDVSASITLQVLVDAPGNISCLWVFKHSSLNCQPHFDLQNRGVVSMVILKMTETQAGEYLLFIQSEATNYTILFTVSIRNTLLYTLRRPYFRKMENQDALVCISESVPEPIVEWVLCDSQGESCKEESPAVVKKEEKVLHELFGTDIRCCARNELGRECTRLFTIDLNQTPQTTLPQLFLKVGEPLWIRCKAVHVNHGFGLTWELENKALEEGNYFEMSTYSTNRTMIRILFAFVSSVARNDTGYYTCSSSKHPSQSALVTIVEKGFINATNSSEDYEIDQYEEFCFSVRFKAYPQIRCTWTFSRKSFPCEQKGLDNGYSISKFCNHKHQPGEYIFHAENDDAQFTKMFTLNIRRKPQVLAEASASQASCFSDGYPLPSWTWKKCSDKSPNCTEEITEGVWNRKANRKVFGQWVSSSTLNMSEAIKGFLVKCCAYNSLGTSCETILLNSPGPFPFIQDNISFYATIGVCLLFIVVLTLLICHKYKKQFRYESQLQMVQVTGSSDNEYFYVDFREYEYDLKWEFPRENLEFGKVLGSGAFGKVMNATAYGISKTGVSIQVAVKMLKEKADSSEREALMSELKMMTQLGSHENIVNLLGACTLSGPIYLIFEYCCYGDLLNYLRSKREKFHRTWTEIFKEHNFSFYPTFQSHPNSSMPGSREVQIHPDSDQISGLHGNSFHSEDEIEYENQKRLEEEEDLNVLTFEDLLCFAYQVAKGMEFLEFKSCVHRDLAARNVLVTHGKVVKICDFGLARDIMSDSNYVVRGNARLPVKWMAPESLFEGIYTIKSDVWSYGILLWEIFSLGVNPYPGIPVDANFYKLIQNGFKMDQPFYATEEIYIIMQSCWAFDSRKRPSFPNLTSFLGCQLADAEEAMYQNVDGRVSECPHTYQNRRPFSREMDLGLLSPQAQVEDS
How it was run: as §1

Structure (SMILES)	IC50 (MERTK) [nM]	Mer/Flt3 ratio (FLT3 IC50/Mer IC50) (MERTK)	IC50 (FLT3) [nM]
CCCC(C)Nc1ncc2c(=O)n(C3CCNCC3)cc([C@H]3CC[C@H](O)CC3)c2n1 (stereo partly drawn) [Compound 112]	≤ 100	+++ (a ratio of >100)	1000 to 10000
CCCCNc1cc2c(cn1)c(=O)n(C1CCN(C)CC1)cc2[C@H]1CC[C@H](O)CC1 [Compound 116]	≤ 100	+ (a ratio of >2.0 and <10)	100 to 1000
CCCC(C)Nc1ncc2c(=O)n(C3CCN(C)CC3)cc([C@H]3CC[C@H](O)CC3)c2n1 (stereo partly drawn) [Compound 117]	≤ 100	+++ (a ratio of >100)	1000 to 10000
CC(C)CC(C)Nc1ncc2c(=O)n(C3CCNCC3)cc([C@H]3CC[C@H](O)CC3)c2n1 (stereo partly drawn) [Compound 119]	≤ 100	+++ (a ratio of >100)	1000 to 10000
CS(=O)(=O)N1CC[C@H](Nc2ncc3c(OC4CCOCC4)ncc([C@H]4CC[C@H](O)CC4)c3n2)C1 [Compound 278]	100 to 1000	++ (a ratio of between 10 and 100)	1000 to 10000
COC[C@H](C)Nc1ncc2c(OC3CCOCC3)ncc(-c3ccc(N4CCN(C)CC4)cc3)c2n1 [Compound 279]	100 to 1000	++ (a ratio of between 10 and 100)	1000 to 10000
COC[C@H](C)Nc1ncc2c(OC3CCOCC3)ncc(-c3ccc(C4CCN(C)CC4)cc3)c2n1 [Compound 280]	≤ 100	++ (a ratio of between 10 and 100)	1000 to 10000
CCOC[C@H](C)Nc1ncc2c(OC3CCOCC3)ncc([C@H]3CC[C@H](O)CC3)c2n1 [Compound 281]	≤ 100	+++ (a ratio of >100)	1000 to 10000
CN1CC(Nc2ncc3c(OC4CCOCC4)ncc([C@H]4CC[C@H](O)CC4)c3n2)CC1=O (stereo partly drawn) [Compound 282]	1000 to 10000	++ (a ratio of between 10 and 100)	1000 to 10000
O=C(O)c1ccc(Nc2ncc3c(OC4CCNCC4)ncc([C@H]4CC[C@H](O)CC4)c3n2)cc1 [Compound 283]	≤ 100	+++ (a ratio of >100)	100 to 1000
C[C@@H](CCO)Nc1ncc2c(OC3CCOCC3)ncc([C@H]3CC[C@H](O)CC3)c2n1 [Compound 284]	≤ 100	+++ (a ratio of >100)	1000 to 10000
COC[C@H](C)Nc1cc2c(cn1)c(OC1CCOCC1)ncc2[C@H]1CC[C@H](O)CC1 [Compound 285]	≤ 100	+++ (a ratio of >100)	1000 to 10000
O[C@H]1CC[C@H](c2cnc(OC3CCOCC3)c3cnc(NCCC(F)(F)F)nc32)CC1 [Compound 286]	≤ 100	+ (a ratio of >2.0 and <10)	≤ 100
CC[C@H](C)Nc1ncc2c(O[C@H]3CC[C@](C)(O)CC3)ncc([C@H]3CC[C@H](O)CC3)c2n1 [Compound 287]	≤ 100	++ (a ratio of between 10 and 100)	100 to 1000
CC(C)Nc1ncc2c(OC3CCOCC3)ncc(-c3cccc(S(=O)(=O)N(C)C)c3)c2n1 [Compound 288]	≤ 100	+++ (a ratio of >100)	100 to 1000
COC[C@H](C)Nc1ncc2c(OC3CCN(S(C)(=O)=O)CC3)ncc([C@H]3CC[C@H](O)CC3)c2n1 [Compound 289]	≤ 100	+++ (a ratio of >100)	1000 to 10000
CC[C@H](C)Nc1ncc2c(=O)n([C@H]3CC[C@H](N)CC3)cc([C@H]3CC[C@H](O)CC3)c2n1 [Compound 290]	≤ 100	+++ (a ratio of >100)	1000 to 10000
CC1(Nc2ncc3c(OC4CCNCC4)ncc([C@H]4CC[C@H](O)CC4)c3n2)CC1 [Compound 291]	≤ 100	+++ (a ratio of >100)	1000 to 10000
C[C@@H](CC#N)Nc1ncc2c(OC3CCOCC3)ncc([C@H]3CC[C@H](O)CC3)c2n1 [Compound 292]	≤ 100	+++ (a ratio of >100)	1000 to 10000
COC[C@H](C)Nc1ncc2c(OC3CCOCC3)ncc([C@H]3CC[C@](C)(O)CC3)c2n1 [Compound 293]	≤ 100	+++ (a ratio of >100)	1000 to 10000
COC[C@H](C)Nc1ncc2c(OC3CCOCC3)ncc([C@H]3CC[C@@](C)(O)CC3)c2n1 [Compound 294]	≤ 100	+++ (a ratio of >100)	1000 to 10000
COC[C@H](C)Nc1ncc2c(O[C@H]3C[C@H](O)C3)ncc([C@H]3CC[C@H](O)CC3)c2n1 [Compound 295]	≤ 100	+++ (a ratio of >100)	1000 to 10000
COC[C@H](C)Nc1ncc2c(O[C@H]3C[C@@H](O)C3)ncc([C@H]3CC[C@H](O)CC3)c2n1 [Compound 296]	≤ 100	+++ (a ratio of >100)	1000 to 10000
CNC(=O)Nc1ccc(-c2cnc(OC3CCOCC3)c3cnc(N[C@@H](C)COC)nc23)cc1 [Compound 297]	100 to 1000	++ (a ratio of between 10 and 100)	1000 to 10000
CC[C@H](C)Nc1ncc2c(O[C@H]3CC[C@@H](N(C)C)C3)ncc([C@H]3CC[C@H](O)CC3)c2n1 [Compound 298]	≤ 100	+++ (a ratio of >100)	1000 to 10000
O[C@H]1CC[C@H](c2cnc(OC3CCNCC3)c3cnc(Nc4ccc(Cl)c(Cl)c4)nc32)CC1 [Compound 299]	≤ 100	++ (a ratio of between 10 and 100)	≤ 100
